The supplement of paper PMC10307832

Columns and labels:
Assay in all cases: relative viability (nuclei count vs DMSO), 5 days (fraction); higher = more cells survive
[1] = compound: C1CC2=C(C1)C=C(C=C2)OC3=NC(=C4C(=N3)N(C=N4)CC5=CC=C(C=C5)C6=CC=CC=C6)N[C@@H](CC7=CC=CC=C7)CO [QS11]
Outline: (§1)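 A plate was accepted only when its control CV was below 25% and the cells had doubled at least once. Viability is defined from nuclear counts as treated wells divided by vehicle wells, with the median taken across plates. That median covers lung cancer cell lines grown in 1536-well plates, dosed by pinning at five √10-spaced library-drug concentrations, and counted in MetaXpress from 4× Hoechst images after 5 days.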

[2] = compound: C[As](C)SC[C@H](NC(=O)CC[C@H](N)C(=O)O)C(=O)NCC(=O)O [Darinaparsin]
Outline: as §1

[3] = compound: CC1=C(C=C(C=C1)NC(=O)C2=CC(=CC=C2)C(C)(C)C#N)NC3=CC4=C(C=C3)N=CN(C4=O)C [AZ628]
Outline: as §1

[4] = compound: C1CC2=C(C1)C=C(C=C2)OC3=NC(=C4C(=N3)N(C=N4)CC5=CC=C(C=C5)C6=CC=CC=C6)N[C@@H](CC7=CC=CC=C7)CO [QS11] + CC(=O)Nc1cccc(-n2c(=O)n(C3CC3)c(=O)c3c(Nc4ccc(I)cc4F)n(C)c(=O)c(C)c32)c1 [Trametinib] (partner 0.02 µM)
Outline: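 The day after seeding in 1536-well plates, lung cancer cell lines were treated by pin tool with a single drug, or with a fixed anchor-drug dose together with five library-drug doses (not always all listed) in √10 steps. After 5 days, a combined fix-and-stain solution (final 0.05% Triton X-100, 1% formaldehyde, 1 ug/ml Hoechst) was added. Nuclei counted on 4× images gave relative viability as treated counts over vehicle counts, reported as the median of duplicate plates.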

Row | Cell Line | relative viability ([1]; 0.08 µM) | relative viability ([1]; 0.253 µM) | relative viability ([1]; 0.8 µM) | relative viability ([1]; 2.53 µM) | relative viability ([1]; 8 µM) | relative viability ([2]; 0.08 µM) | relative viability ([2]; 0.8 µM) | relative viability ([2]; 2.53 µM) | relative viability ([2]; 8 µM) | relative viability ([3]; 0.08 µM) | relative viability ([3]; 0.253 µM) | relative viability ([3]; 0.8 µM) | relative viability ([3]; 2.53 µM) | relative viability ([3]; 8 µM) | relative viability ([4]; first compound 0.08 µM) | relative viability ([4]; first compound 0.253 µM) | relative viability ([4]; first compound 0.8 µM) | relative viability ([4]; first compound 2.53 µM) | relative viability ([4]; first compound 8 µM)
1 | NCI-H2342 | 0.888 | 1.02 | 1.07 | 0.998 | 0.998 | 0.953 | 0.888 | 0.939 | 1.08 | 1.1 | 0.898 | 1.02 | 0.935 | 0.995 | 0.775 | 0.769 | 0.838 | 0.88 | 0.743
2 | COR-L23 | 1.02 | 1.01 | 0.827 | 0.918 | 0.648 | 1.11 | 0.995 | 0.96 | 1.37 | 1.08 | 1.1 | 0.957 | 1.12 | 0.614 | 0.577 | 0.605 | 0.585 | 0.551 | 0.598
3 | NCI-H1734 | 0.99 | 1.01 | 0.945 | 0.874 | 0.725 | 1.06 | 0.993 | 0.971 | 1.16 | 1.08 | 0.974 | 0.919 | 0.913 | 0.514 | 0.645 | 0.626 | 0.648 | 0.546 | 0.565
4 | NCI-H23 | 0.995 | 0.85 | 0.832 | 0.832 | 0.831 | 1.06 | 0.843 | 1.11 | 1.14 | 1.01 | 0.838 | 0.721 | 0.799 | 0.543 | 0.359 | 0.385 | 0.283 | 0.297 | 0.318
5 | NCI-H647 | 0.979 | 0.856 | 0.917 | 0.956 | 0.769 | 1.08 | 0.962 | 0.896 | 1.26 | 1.01 | 0.962 | 0.798 | 0.936 | 0.732 | 0.472 | 0.428 | 0.411 | 0.575 | 0.544
6 | NCI-H1915 | 0.993 | 1.04 |  | 0.872 | 0.871 | 1.04 | 0.964 | 0.965 | 1.1 | 0.994 | 0.939 | 0.796 | 0.731 | 0.464 | 0.292 | 0.292 |  | 0.288 | 0.309
7 | 201T | 0.994 | 0.909 | 0.819 | 0.895 | 0.828 | 0.996 | 0.998 | 0.947 | 0.986 | 1.03 | 0.997 | 1.07 | 1.06 | 1.04 | 0.729 | 0.739 | 0.566 | 0.704 | 0.61
8 | NCI-H3122 | 1.03 | 1.07 |  | 1.11 | 0.972 | 1.06 | 1.01 | 1.01 | 1.16 | 0.956 | 0.736 | 0.648 | 0.598 | 0.403 | 0.213 | 0.239 |  | 0.253 | 0.343
9 | NCI-H2170 | 1.04 | 1 | 0.728 | 1.05 | 1.2 | 1.11 | 0.978 | 0.845 | 1.18 | 1.01 | 0.964 | 0.936 | 1.02 | 0.983 | 0.93 | 0.962 | 0.728 | 1.01 | 1.04
10 | HCC-78 | 0.958 | 0.955 | 0.94 | 1.03 | 1.05 | 1 | 0.918 | 0.936 | 1.09 | 1.09 | 0.911 | 1.08 | 1.05 | 0.932 | 0.771 | 0.765 | 0.643 | 0.883 | 0.781
11 | HARA | 0.931 | 0.875 |  | 1.02 | 0.995 | 1.08 | 0.88 | 0.914 | 1.04 | 0.978 | 0.962 | 0.825 | 0.974 | 0.563 | 0.652 |  | 0.562 | 0.48 | 0.634
12 | NCI-H2347 | 0.938 | 1.05 | 0.873 | 0.906 | 0.906 | 1.05 | 0.961 | 0.994 | 1.19 | 0.775 | 0.895 | 0.854 | 0.76 | 0.485 | 0.27 | 0.292 | 0.273 | 0.313 | 0.286
13 | NCI-H1437 | 0.965 | 1.02 | 0.752 | 0.901 | 0.929 | 1.08 | 1.02 | 0.973 | 1.21 | 0.988 | 0.938 | 0.858 | 1.01 | 1.01 | 0.551 | 0.561 | 0.474 | 0.477 | 0.499
14 | NCI-H522 | 0.872 | 0.96 | 0.934 | 0.944 | 0.875 | 0.969 | 0.992 | 0.972 | 1.07 | 0.922 | 0.827 | 0.755 | 1.11 | 0.815 | 0.795 | 0.791 | 0.675 | 0.799 | 0.943
15 | NCI-H1648 | 0.748 | 0.972 | 0.744 | 0.978 | 1.11 | 0.735 | 0.803 |  | 0.975 | 1.14 | 1.08 | 0.726 | 0.597 | 0.641 | 0.603 | 0.535 | 0.423 | 0.557 | 0.486
16 | LXF-289 | 1 | 1.04 | 0.732 | 0.902 | 0.809 | 1.04 | 0.994 | 0.941 | 1.13 | 1 | 0.986 | 0.906 | 0.98 | 0.722 | 0.671 | 0.711 | 0.583 | 0.621 | 0.629
17 | NCI-H1792 | 0.738 | 0.903 | 0.827 | 0.823 | 0.669 | 0.929 | 1.01 |  | 1.28 | 1.11 | 0.833 | 0.766 | 0.746 | 0.456 |  | 0.514 | 0.39 | 0.312 | 0.306
